{"source": "patent US11046649B2", "about": "“Compounds useful as inhibitors of indoleamine 2,3-dioxygenase and/or tryptophan dioxygenase” (Board of Regents, The University of Texas System, priority 2018, dated 2021)", "data": [{"molecular_target": "T1, IDO1 (Homo sapiens, UniProt P14902)", "T1 construct": "endogenous in cells; host or cells: HeLa cells (ATCC), IDO1 induced with 10 ng/mL IFNgamma", "T1 sequence (P14902 whole entry)": "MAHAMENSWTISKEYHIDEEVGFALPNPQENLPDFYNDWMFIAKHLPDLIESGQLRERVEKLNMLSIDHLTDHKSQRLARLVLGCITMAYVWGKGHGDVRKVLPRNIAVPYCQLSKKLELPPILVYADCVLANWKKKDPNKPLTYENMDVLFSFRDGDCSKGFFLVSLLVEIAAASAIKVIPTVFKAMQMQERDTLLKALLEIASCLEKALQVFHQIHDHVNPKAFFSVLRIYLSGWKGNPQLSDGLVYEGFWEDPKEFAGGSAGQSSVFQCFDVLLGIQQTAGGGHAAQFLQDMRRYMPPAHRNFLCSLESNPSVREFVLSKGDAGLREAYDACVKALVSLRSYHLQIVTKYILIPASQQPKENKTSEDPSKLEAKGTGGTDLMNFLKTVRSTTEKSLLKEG", "assay": "IDO1 cell-based assay", "conditions": "HeLa cells, 10 ng/mL IFNgamma, 24 hours with test compound; N-Formyl Kynurenine and L-tryptophan quantified by RFMS", "units": {"IC50": "nM"}, "values": [{"molecule": "C[C@H](C(=O)Nc1ccc(-c2ccc(F)cc2)cc1)[C@H]1[C@@H]2C[C@@H](n3cnc4cc(F)c(F)cc43)C[C@@H]21", "note": "[Example 93, (S)-2-((1R,3R,5S,6r)-3-(5,6-difluoro-1H-benzo[d]-imidazol-1-yl)bicyclo-[3.1.0]hexan-6-yl)-N-(4′-fluoro-[1,1′-biphenyl]-4-yl)propanamide]", "IC50": 329}, {"molecule": "CC(C(=O)NC1CCN(C(=O)OC(C)(C)C)CC1)[C@H]1[C@@H]2C[C@@H](Oc3ccnc4ccc(F)cc34)C[C@@H]21", "note": "(stereo partly drawn) [Example 94, tert-butyl 4-(2-((1R,3s,5S,6r)-3-((6-fluoroquinolin-4-yl)oxy)-bicyclo[3.1.0]hexan-6-yl)-propanamido)piperidine-1-carboxylate]", "IC50": 1090}, {"molecule": "CC(C(=O)Nc1nc2c(Br)cc(Cl)cc2s1)[C@H]1[C@@H]2C[C@@H](Oc3ccnc4ccc(F)cc34)C[C@@H]21", "note": "(stereo partly drawn) [Example 95, N-(4-bromo-6-chloro-benzo[d]thiazol-2-yl)-2-((1R,3s,5S,6r)-3-((6-fluoroquinolin-4-yl)-oxy)bicyclo[3.1.0]hexan-6-yl)propanamide]", "IC50": 231}, {"molecule": "CC(C(=O)NC12CC(c3ccc(F)cc3)(C1)C2)[C@H]1[C@@H]2C[C@@H](Oc3ccnc4ccc(F)cc34)C[C@@H]21", "note": "(stereo partly drawn) [Example 100, N-(3-(4-fluorophenyl)-bicyclo[1.1.1]pentan-1-yl)-2-((1R,3s,5S,6r)-3-((6-fluoroquinolin-4-yl)-oxy)bicyclo[3.1.0]hexan-6-yl)propanamide]", "IC50": 45.3}, {"molecule": "CC(C(=O)Nc1ccn(CC(F)(F)F)n1)[C@H]1[C@@H]2C[C@@H](Oc3ccnc4ccc(F)cc34)C[C@@H]21", "note": "(stereo partly drawn) [Example 105, 2-((1R,3s,5S,6r)-3-((6-fluoroquinolin-4-yl)oxy)-bicyclo[3.1.0]hexan-6-yl)-N-(1-(2,2,2-trifluoroethyl)-1H-pyrazol-3-yl)-propanamide]", "IC50": 17.9}, {"molecule": "CC(C(=O)Nc1nc2ccccc2[nH]1)[C@H]1[C@@H]2C[C@@H](Oc3ccnc4ccc(F)cc34)C[C@@H]21", "note": "(stereo partly drawn) [Example 107, N-(1H-benzo[d]imidazol-2-yl)-2-((1R,3s,5S,6r)-3-((6-fluoroquinolin-4-yl)oxy)-bicyclo[3.1.0]hexan-6-yl)propanamide]", "IC50": 9.2}, {"molecule": "CCC(C(=O)Nc1ccc(C(N)=O)cn1)[C@H]1[C@@H]2C[C@@H](Oc3ccnc4ccc(F)cc34)C[C@@H]21", "note": "(stereo partly drawn) [Example 118, 6-(2-((1R,3s,5S,6r)-3-((6-fluoroquinolin-4-yl)oxy)-bicyclo[3.1.0]hexan-6-yl)-butanamido)nicotinamide]", "IC50": 21.3}, {"molecule": "CCC(C(=O)Nc1ccc(-n2cncn2)cn1)[C@H]1[C@@H]2C[C@@H](Oc3ccnc4ccc(F)cc34)C[C@@H]21", "note": "(stereo partly drawn) [Example 119, N-(5-(1H-1,2,4-triazol-1-yl)pyridin-2-yl)-2-((1R,3s,5S,6r)-3-((6-fluoro-quinolin-4-yl)oxy)-bicyclo[3.1.0]hexan-6-yl)-butanamide]", "IC50": 6.9}, {"molecule": "CCC(C(=O)Nc1cnc(C)cn1)[C@H]1[C@@H]2C[C@@H](Oc3ccnc4ccc(F)cc34)C[C@@H]21", "note": "(stereo partly drawn) [Example 120, 2-((1R,3s,5S,6r)-3-((6-fluoroquinolin-4-yl)oxy)-bicyclo[3.1.0]hexan-6-yl)-N-(5-methylpyrazin-2-yl)-butanamide]", "IC50": 1.43}, {"molecule": "N#Cc1ccc(NC(=O)C(C2CC2)[C@H]2[C@@H]3C[C@@H](Oc4ccnc5ccc(F)cc45)C[C@@H]32)nc1", "note": "(stereo partly drawn) [Example 121, N-(5-cyanopyridin-2-yl)-2-cyclopropyl-2-((1R,3s,5S,6r)-3-((6-fluoroquinolin-4-yl)-oxy)bicyclo[3.1.0]hexan-6-yl)acetamide]", "IC50": 1.67}, {"molecule": "N#Cc1ccc(NC(=O)C(C2CC2)[C@H]2[C@@H]3C[C@@H](Oc4ccnc5ccc(F)cc45)C[C@@H]32)nn1", "note": "(stereo partly drawn) [Example 124, N-(6-cyanopyridazin-3-yl)-2-cyclopropyl-2-((1R,3s,5S,6r)-3-((6-fluoroquinolin-4-yl)oxy)-bicyclo[3.1.0]hexan-6-yl)acetamide]", "IC50": 8.41}, {"molecule": "O=C(O)C(C1CC1)[C@H]1[C@@H]2C[C@@H](Oc3ccnc4ccc(F)cc34)C[C@@H]21", "note": "(stereo partly drawn) [Example 127, 2-cyclopropyl-2-((1R,3s,5S,6r)-3-((6-fluoroquinolin-4-yl)oxy)-bicyclo[3.1.0]hexan-6-yl)acetic acid]", "IC50": 6310}, {"molecule": "CC(C(=O)NC12CC(NC(=O)CO)(C1)C2)[C@H]1[C@@H]2C[C@@H](Oc3ccnc4ccc(F)cc34)C[C@@H]21", "note": "(stereo partly drawn) [Example 129, 2-((1R,3s,5S,6r)-3-((6-fluoroquinolin-4-yl)oxy)-bicyclo[3.1.0]hexan-6-yl)-N-(3-(2-hydroxy-acetamido)bicyclo-[1.1.1]pentan-1-yl)-propanamide]", "IC50": 597}, {"molecule": "CC(C(=O)NC12CC(NC(=O)CC#N)(C1)C2)[C@H]1[C@@H]2C[C@@H](Oc3ccnc4ccc(F)cc34)C[C@@H]21", "note": "(stereo partly drawn) [Example 130]", "IC50": 636}, {"molecule": "COCC(=O)NC12CC(NC(=O)C(C)[C@H]3[C@@H]4C[C@@H](Oc5ccnc6ccc(F)cc56)C[C@@H]43)(C1)C2", "note": "(stereo partly drawn) [Example 132, 2-((1R,3s,5S,6r)-3-((6-fluoroquinolin-4-yl)oxy)-bicyclo[3.1.0]hexan-6-yl)-N-(3-(2-methoxyacetamido)-bicyclo[1.1.1]pentan-1-yl)-propanamide]", "IC50": 511}, {"molecule": "CC(=O)NC12CC(NC(=O)C(C)[C@H]3[C@@H]4C[C@@H](Oc5ccnc6ccc(F)cc56)C[C@@H]43)(C1)C2", "note": "(stereo partly drawn) [Example 133, N-(3-acetamidobicyclo-[1.1.1]pentan-1-yl)-2-((1R,3s,5S,6r)-3-((6-fluoro-quinolin-4-yl)oxy)bicyclo-[3.1.0]hexan-6-yl)-propanamide]", "IC50": 420}, {"molecule": "CC(c1nc2cc(C(F)(F)F)ccc2[nH]1)[C@H]1[C@@H]2C[C@@H](Oc3ccnc4ccc(F)cc34)C[C@@H]21", "note": "(stereo partly drawn) [Example 137, 6-fluoro-4-(((1R,3s,5S,6r)-6-(1-(5-(trifluoromethyl)-1H-benzo[d]imidazol-2-yl)-ethyl)bicyclo[3.1.0]hexan-3-yl)oxy)quinoline]", "IC50": 1.2}, {"molecule": "CC(C(=O)Nc1cnn(-c2ccccc2)c1)[C@H]1[C@@H]2C[C@@H](Oc3ccnc4ccc(F)cc34)C[C@@H]21", "note": "(stereo partly drawn) [Example 143, 2-((1R,3s,5S,6r)-3-((6-fluoroquinolin-4-yl)-oxy)bicyclo[3.1.0]hexan-6-yl)-N-(1-phenyl-1H-pyrazol-4-yl)propanamide]", "IC50": 2.77}, {"molecule": "CCC(C(=O)Nc1ccc(C#N)nn1)[C@H]1[C@@H]2C[C@@H](Oc3ccnc4ccc(F)cc34)C[C@@H]21", "note": "(stereo partly drawn) [Example 149, N-(6-cyanopyridazin-3-yl)-2-((1R,3s,5S,6r)-3-((6-fluoroquinolin-4-yl)oxy)-bicyclo[3.1.0]hexan-6-yl)butanamide]", "IC50": 5.49}, {"molecule": "N-(5-(1H-1,2,4-triazol-1- yl)pyridin-2-yl)-2- ((1R,3s,5S,6r)-3-((6- fluoroquinolin-4-yl)- oxy)bicyclo[3.1.0]hexan-6- yl)propanamide [Example 96]", "IC50": 7.1}, {"molecule": "N-(5-cyanopyridin-2-yl)-2- ((1R,3s,5S,6r)-3-((6- fluoroquinolin-4-yl)oxy)- bicyclo[3.1.0]hexan-6-yl)- propanamide [Example 58]", "IC50": 2}]}]}
